Where two headings read alike, the source gives them in different places.
How the values were obtained:
Assay in all cases: In vitro competitive activity-based protein profiling (gel-based, FP-Rh or HT-01 probe)
Assay type in all cases: biochemical
FAAH = target: T1, FAAH (Mus musculus, UniProt O08914); settings: for inhibition at 1 µM: 1 μM inhibitor, read-out: % Inhibition at 1 μM, B = FAAH; for inhibition at 10 µM: 10 μM inhibitor, read-out: % Inhibition at 10 μM, B = FAAH; for IC50: mouse brain membrane fraction or cell lysates, 30 min preincubation at 37° C., read-out: Mouse (IC50 value, nM) FAAH
T1 construct: Proteomes (mouse brain membrane fraction or cell lysates); from tissue; host or cells: mouse brain membrane fraction (or cell lysates, not specified)
T1 sequence (O08914 1-579): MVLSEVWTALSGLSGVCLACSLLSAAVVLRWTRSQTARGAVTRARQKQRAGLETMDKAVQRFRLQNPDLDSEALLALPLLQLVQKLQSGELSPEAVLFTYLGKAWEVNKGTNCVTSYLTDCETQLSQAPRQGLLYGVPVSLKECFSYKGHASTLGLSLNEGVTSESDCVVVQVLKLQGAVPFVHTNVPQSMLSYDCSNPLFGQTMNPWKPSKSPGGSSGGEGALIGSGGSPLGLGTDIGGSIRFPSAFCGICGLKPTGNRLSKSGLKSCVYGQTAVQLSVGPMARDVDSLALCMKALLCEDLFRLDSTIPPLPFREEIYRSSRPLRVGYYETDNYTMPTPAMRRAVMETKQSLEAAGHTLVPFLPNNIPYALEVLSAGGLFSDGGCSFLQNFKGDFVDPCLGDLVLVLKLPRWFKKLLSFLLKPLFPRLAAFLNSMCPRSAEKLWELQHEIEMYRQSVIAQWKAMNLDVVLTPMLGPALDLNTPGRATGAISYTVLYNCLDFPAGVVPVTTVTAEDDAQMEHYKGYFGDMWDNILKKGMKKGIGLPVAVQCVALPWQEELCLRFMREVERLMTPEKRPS
How it was run: (§1)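 Gel-based read-out: fluorescent band intensity after SDS-PAGE reflected remaining hydrolase activity. Inhibitors were preincubated 30 min at 37° C with 1.0 mg/mL mouse brain membrane or lysate proteome before a further 30 min at 37° C with FP-Rh or HT-01 probe.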

MAGL = target: T2, MAGL (Mus musculus, UniProt O35678); settings: for inhibition at 1 µM: 1 μM inhibitor; for inhibition at 10 µM: 10 μM inhibitor; for IC50: mouse brain membrane fraction or cell lysates, 30 min preincubation at 37° C., read-out: Mouse (IC50 value, nM) MAGL
T2 construct: Proteomes (mouse brain membrane fraction or cell lysates); from tissue; host or cells: mouse brain membrane fraction (or cell lysates, not specified)
T2 sequence (O35678 1-303): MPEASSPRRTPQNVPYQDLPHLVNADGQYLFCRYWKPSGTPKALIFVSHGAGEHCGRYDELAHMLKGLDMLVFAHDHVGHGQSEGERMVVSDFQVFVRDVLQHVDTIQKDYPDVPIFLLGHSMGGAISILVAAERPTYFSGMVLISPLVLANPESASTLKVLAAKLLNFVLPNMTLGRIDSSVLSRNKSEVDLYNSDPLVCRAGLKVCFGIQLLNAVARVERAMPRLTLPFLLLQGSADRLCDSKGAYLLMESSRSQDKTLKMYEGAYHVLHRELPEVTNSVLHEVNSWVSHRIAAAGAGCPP
How it was run: as §1

PLA2G7 = target: T3, PLA2G7 (Mus musculus, UniProt Q60963); settings: for inhibition at 1 µM: 1 μM inhibitor, read-out: % Inhibition at 1 μM, D = PLA2G7; for inhibition at 10 µM: 10 μM inhibitor, read-out: % Inhibition at 10 μM, D = PLA2G7
T3 construct: Proteomes (mouse brain membrane fraction or cell lysates); from tissue; host or cells: mouse brain membrane fraction (or cell lysates, not specified)
T3 sequence (Q60963 22-440): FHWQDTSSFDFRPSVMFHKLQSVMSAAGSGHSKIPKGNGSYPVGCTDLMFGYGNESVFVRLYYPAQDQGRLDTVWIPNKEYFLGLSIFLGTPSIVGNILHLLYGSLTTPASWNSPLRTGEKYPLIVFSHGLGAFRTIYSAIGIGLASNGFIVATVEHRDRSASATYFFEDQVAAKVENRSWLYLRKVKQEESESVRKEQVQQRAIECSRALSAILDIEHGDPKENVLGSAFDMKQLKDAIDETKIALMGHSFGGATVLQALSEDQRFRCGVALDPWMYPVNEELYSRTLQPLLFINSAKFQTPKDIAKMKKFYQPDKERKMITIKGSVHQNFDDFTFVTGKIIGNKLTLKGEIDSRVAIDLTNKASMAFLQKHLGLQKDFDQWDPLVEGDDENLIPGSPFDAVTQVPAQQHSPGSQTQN
How it was run: as §1

ABHD6 = target: T4, ABHD6 (Mus musculus, UniProt Q8R2Y0); settings: for inhibition at 1 µM: 1 μM inhibitor, read-out: % Inhibition at 1 μM, C = ABHD6; for inhibition at 10 µM: 10 μM inhibitor, read-out: % Inhibition at 10 μM, C = ABHD6; for IC50: mouse brain membrane fraction or cell lysates, 30 min preincubation at 37° C., read-out: Mouse (IC50 value, nM) ABHD6
T4 construct: Proteomes (mouse brain membrane fraction or cell lysates); from tissue; host or cells: mouse brain membrane fraction (or cell lysates, not specified)
T4 sequence (Q8R2Y0 1-336): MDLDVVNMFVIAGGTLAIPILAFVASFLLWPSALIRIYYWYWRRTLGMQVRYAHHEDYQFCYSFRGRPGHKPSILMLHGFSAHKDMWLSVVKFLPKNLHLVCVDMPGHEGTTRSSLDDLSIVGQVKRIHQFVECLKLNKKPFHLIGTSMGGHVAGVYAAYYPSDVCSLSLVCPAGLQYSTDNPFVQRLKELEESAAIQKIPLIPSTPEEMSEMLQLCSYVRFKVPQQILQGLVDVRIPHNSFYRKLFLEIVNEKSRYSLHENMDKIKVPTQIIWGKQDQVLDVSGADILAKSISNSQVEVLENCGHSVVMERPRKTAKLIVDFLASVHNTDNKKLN
How it was run: as §1

SMILES	inhibition at 1 µM (FAAH)	inhibition at 10 µM (FAAH)	inhibition at 1 µM (MAGL)	inhibition at 10 µM (MAGL)	inhibition at 1 µM (PLA2G7)	inhibition at 10 µM (PLA2G7)	inhibition at 1 µM (ABHD6)	inhibition at 10 µM (ABHD6)	IC50 (FAAH)	IC50 (MAGL)	IC50 (ABHD6)	inhibition at 1 µM (FAAH; gel-based competitive ABPP)	inhibition at 1 µM (MAGL; gel-based competitive ABPP)	inhibition at 1 µM (PLA2G7; gel-based competitive ABPP)	inhibition at 1 µM (ABHD6; gel-based competitive ABPP)
Cc1cc(N2CCN(C(=O)n3cc(-c4ccccc4)cn3)CC2)c2ccccc2n1 [Example 207, (4-(2-Methylquinolin-4-yl)piperazin-1-yl)(4-phenyl-1H-pyrazol-1-yl)methanone]	> 75%	> 75%	25 to 75%	> 75%	25 to 75%	> 75%	> 75%	> 75%	–	–	–	–	–	–	–
Cc1cnn(C(=O)N2CCN(Cc3ccccc3)CC2)c1 [Example 8, (4-Benzylpiperazin-1-yl)(4-methyl-1H-pyrazol-1-yl)methanone]	< 25%	25 to 75%	25 to 75%	> 75%	< 25%	> 75%	> 75%	> 75%	–	–	–	–	–	–	–
O=C(N1CCN(c2cccc(N3CCOCC3)c2)CC1)n1cc(C(F)(F)F)cn1 [Example 237, (4-(3-Morpholinophenyl)piperazin-1-yl)(4-(trifluoromethyl)-1H-pyrazol-1-yl)methanone]	> 75%	> 75%	> 75%	> 75%	> 75%	> 75%	> 75%	> 75%	–	–	–	–	–	–	–
O=C(c1cnn(C(=O)N2CCN(Cc3ccccn3)CC2)c1)N1CCCCC1 [Example 72, Piperidin-1-yl(1-(4-(pyridin-2-ylmethyl)piperazine-1-carbonyl)-1H-pyrazol-4-yl)methanone]	< 25%	> 75%	< 25%	< 25%	> 75%	> 75%	< 25%	> 75%	–	–	–	–	–	–	–
N#Cc1cnn(C(=O)NCCCCc2ccccc2)c1 [Example 36, 4-Cyano-N-(4-phenylbutyl)-1H-pyrazole-1-carboxamide]	25 to 75%	> 75%	< 25%	25 to 75%	< 25%	< 25%	< 25%	25 to 75%	–	–	–	–	–	–	–
Cc1cnn(C(=O)N2CCN(C)CC2)c1 [Example 163, (4-Methyl-1H-pyrazol-1-yl)(4-methylpiperazin-1-yl)methanone]	< 25%	< 25%	< 25%	< 25%	< 25%	< 25%	< 25%	25 to 75%	–	–	–	–	–	–	–
Cc1cnn(C(=O)N2CCCN(C)CC2)c1 [Example 167, (4-Methyl-1,4-diazepan-1-yl)(4-methyl-1H-pyrazol-1-yl)methanone]	–	< 25%	–	< 25%	–	< 25%	–	< 25%	–	–	–	–	–	–	–

The remaining lines, values ahead:

inhibition at 1 µM (FAAH)	inhibition at 10 µM (FAAH)	inhibition at 1 µM (MAGL)	inhibition at 10 µM (MAGL)	inhibition at 1 µM (PLA2G7)	inhibition at 10 µM (PLA2G7)	inhibition at 1 µM (ABHD6)	inhibition at 10 µM (ABHD6)	IC50 (FAAH)	IC50 (MAGL)	IC50 (ABHD6)	inhibition at 1 µM (FAAH; gel-based competitive ABPP)	inhibition at 1 µM (MAGL; gel-based competitive ABPP)	inhibition at 1 µM (PLA2G7; gel-based competitive ABPP)	inhibition at 1 µM (ABHD6; gel-based competitive ABPP)	SMILES
> 75%	> 75%	< 25%	> 75%	< 25%	> 75%	< 25%	> 75%	–	–	–	–	–	–	–	CN(CCN(C)C(=O)n1cc(C#N)cn1)C(=O)c1ccccc1 [Example 182, 4-Cyano-N-methyl-N-(2-(N-methylbenzamido)ethyl)-1H-pyrazole-1-carboxamide]
< 25%	< 25%	< 25%	25 to 75%	< 25%	> 75%	< 25%	< 25%	–	–	–	–	–	–	–	Cc1cnn(C(=O)N2CCN(C(=O)c3ccccc3)CC2)c1 [Example 164, (4-Benzoylpiperazin-1-yl)(4-methyl-1H-pyrazol-1-yl)methanone]
–	25 to 75%	–	< 25%	< 25%	> 75%	25 to 75%	> 75%	–	–	–	–	–	–	–	O=C(c1cnn(C(=O)N2CCN(Cc3ccncc3)CC2)c1)N1CCCC1 [Example 79, (4-(Pyridin-4-ylmethyl)piperazin-1-yl)(4-(pyrrolidine-1-carbonyl)-1H-pyrazol-1-yl)methanone]
< 25%	25 to 75%	> 75%	> 75%	> 75%	> 75%	> 75%	> 75%	> 1000 nM	100 to 1000 nM	100 to 1000 nM	–	–	–	–	O=C(c1cnn(C(=O)N2CCN(C(c3ccc(Cl)cc3)c3ccc(Cl)cc3)CC2)c1)N1CCOCC1 [Example 67, (4-(Bis(4-chlorophenyl)methyl)piperazin-1-yl)(4-(morpholine-4-carbonyl)-1H-pyrazol-1-yl)methanone]
> 75%	> 75%	> 75%	> 75%	> 75%	> 75%	> 75%	> 75%	–	–	–	–	–	–	–	Cc1cc(N2CCN(C(=O)n3cc(Cl)cn3)CC2)c2ccccc2n1 [Example 208, (4-Chloro-1H-pyrazol-1-yl)(4-(2-methylquinolin-4-yl)piperazin-1-yl)methanone]
> 75%	> 75%	> 75%	> 75%	< 25%	> 75%	> 75%	> 75%	< 100 nM	100 to 1000 nM	100 to 1000 nM	–	–	–	–	Cc1cc(-c2ccccc2)ccc1CN1CCN(C(=O)n2cc(C(=O)N3CCOCC3)cn2)CC1 [Example 57, (4-((3-Methyl-[1,1′-biphenyl]-4-yl)methyl)piperazin-1-yl)(4-(morpholine-4-carbonyl)-1H-pyrazol-1-yl)methanone]
–	–	–	–	–	–	–	–	–	–	–	> 75%	> 75%	< 25%	> 75%	Cc1cnn(C(=O)N2CCN(Cc3cccc(Oc4ccccc4)c3)CC2)c1 [Example 294, (4-Methyl-1H-pyrazol-1-yl)(4-(3-phenoxybenzyl)piperazin-1-yl)methanone]

Source: patent US10093630B2, “Pyrazole compounds and methods of making and using same” (ABIDE THERAPEUTICS, INC., priority 2014, dated 2018)
